Measurements taken from patent US20240158446A1, “CYCLIC COMPOUND HAVING SELECTIVE INHIBITORY ACTION ON KRAS OVER HRAS AND NRAS” (CHUGAI SEIYAKU KABUSHIKI KAISHA, priority 2021, published 2024).
Like-named read-outs stand apart in the source and are kept apart here.

What was measured:
[1] = molecular target: GDP-bound HRAS wild-type protein (Homo sapiens, UniProt P01112); assay: Binding to HRAS by surface plasmon resonance (SPR), Single Cycle Kinetics; conditions: for HRAS/KRAS (ratio of KD value for HRAS to KD value for KRAS): GDP-bound HRAS wild-type protein vs GDP-bound KRAS wild-type protein; for HRAS/KRAS (ratio of KD value with respect to GDP-bound HRAS wild-type protein to KD value with respect to KRAS): SPR KD ratio HRAS/KRAS, class symbols
GDP-bound HRAS wild-type protein, sequence (P01112 whole entry): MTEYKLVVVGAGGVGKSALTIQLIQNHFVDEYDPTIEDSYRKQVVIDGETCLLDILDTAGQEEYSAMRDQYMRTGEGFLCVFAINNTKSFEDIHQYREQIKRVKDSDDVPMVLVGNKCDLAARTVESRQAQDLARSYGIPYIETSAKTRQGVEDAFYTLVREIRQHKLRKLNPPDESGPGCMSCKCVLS

[2] = molecular target: GDP-bound KRAS wild-type protein (Homo sapiens, UniProt P01116); assay: Binding to KRAS by surface plasmon resonance (SPR), Single Cycle Kinetics; conditions: GDP-bound KRAS wild-type protein, read-out: KRAS KD
GDP-bound KRAS wild-type protein, sequence (P01116 whole entry): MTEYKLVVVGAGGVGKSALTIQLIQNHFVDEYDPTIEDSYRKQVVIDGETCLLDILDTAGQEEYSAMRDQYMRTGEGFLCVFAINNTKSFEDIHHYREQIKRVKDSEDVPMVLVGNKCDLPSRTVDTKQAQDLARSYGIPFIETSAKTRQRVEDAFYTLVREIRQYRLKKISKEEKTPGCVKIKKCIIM

[3] = test system: human lung cancer strain NCI-H441;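 further: cell proliferation inhibition after four days measured by CellTiter-Glo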
[4] = molecular target: GDP-bound NRAS wild-type protein (Homo sapiens, UniProt P01111); assay: Binding to NRAS by surface plasmon resonance (SPR), Single Cycle Kinetics; conditions: for NRAS/KRAS (ratio of KD value for NRAS to KD value for KRAS): GDP-bound NRAS wild-type protein vs GDP-bound KRAS wild-type protein; for NRAS/KRAS (ratio of KD value with respect to GDP-bound NRAS wild-type protein to KD value with respect to KRAS): SPR KD ratio NRAS/KRAS, class symbols
GDP-bound NRAS wild-type protein, sequence (P01111 whole entry): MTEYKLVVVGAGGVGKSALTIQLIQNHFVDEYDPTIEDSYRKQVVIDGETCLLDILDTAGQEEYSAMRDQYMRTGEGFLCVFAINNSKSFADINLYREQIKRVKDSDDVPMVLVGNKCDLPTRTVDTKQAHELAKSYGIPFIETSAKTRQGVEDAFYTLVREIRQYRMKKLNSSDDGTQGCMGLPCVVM

[5] = SPR, Single Cycle Kinetics, 1:1 binding model
[6] = SPR Single Cycle Kinetics, 1:1 binding model

| Kd [2, 5] [nM] | IC50 [3] [nM] | Kd ([2]; SPR, Single Cycle Kinetics) [nM] | Kd [2, 6] [nM] | SMILES | HRAS/KRAS (ratio of KD value for HRAS to KD value for KRAS) ([1]; SPR, KD ratio class) | NRAS/KRAS (ratio of KD value for NRAS to KD value for KRAS) ([4]; SPR, KD ratio class) | HRAS/KRAS (ratio of KD value for HRAS to KD value for KRAS) ([1]; SPR) | NRAS/KRAS (ratio of KD value for NRAS to KD value for KRAS) ([4]; SPR) | HRAS/KRAS (ratio of KD value with respect to GDP-bound HRAS wild-type protein to KD value with respect to KRAS) [1] | NRAS/KRAS (ratio of KD value with respect to GDP-bound NRAS wild-type protein to KD value with respect to KRAS) [4] | further results |
| --- | --- | --- | --- | --- | --- | --- | --- | --- | --- | --- | --- |
| 0.06 | 3.7 |  |  | CCO[C@@H]1C[C@H]2C(=O)NC3(CCC3)C(=O)N(C)[C@@H](C3CCCC3)C(=O)N(C)[C@H](C(=O)N(C)C)CC(=O)N(C)[C@@H](CC(C)C)C(=O)N[C@@H]([C@@H](C)CC)C(=O)N(C)CC(=O)N(C)[C@H]3C/C=C\CCN(C3=O)[C@@H](Cc3ccc(C(F)(F)F)cc3)C(=O)N(C)CC(=O)N[C@@H](CCc3ccc(C(F)(F)F)c(OC)c3)C(=O)N2C1 [PP1245, (2S,8S,12R,14S,20S,23S,27S,30S,36S,38Z)-20-cyclopentyl-12-ethoxy-27-isobutyl-8-[2-[3-methoxy-4-(trifluoromethyl)phenyl]ethyl]-N,N,4,19,22,26,32,35-octamethyl-30-[(1S)-1-methylpropyl]-3,6,9,15,18,21,25,28,31,34,42-undecaoxo-2-[[4-(trifluoromethyl)phenyl]methyl]spiro[1,4,7,10,16,19,22,26,29,32,35-undecazatricyclo[34.5.1.0^10,14]dotetracont-38-ene-17,1′-cyclobutane]-23-carboxamide] | B (a compound having 3 or more and less than 10 is denoted as B) | A (a compound having 10 or more and less than 20 is denoted as A) |  |  |  |  |  |
|  | 117 | 0.46 |  | CCOC[C@H]1C(=O)N[C@@H]([C@@H](C)OCC)C(=O)N(C)CC(=O)N(C)[C@H]2C/C=C\CCN(C2=O)[C@@H](Cc2ccc(C)cc2)C(=O)N(C)CC(=O)N[C@@H](CCc2cc(F)c(C(F)(F)F)c(F)c2)C(=O)N2C[C@@H](C)C[C@H]2C(=O)NC2(CC(C)(C)C2)C(=O)N(C)[C@@H](C2CCCC2)C(=O)N(C)[C@H](C(=O)N(C)CC)CC(=O)N1C [PP2422] |  |  | A (a compound having 10 or more and less than 20 is denoted as A) | A (a compound having 10 or more and less than 20 is denoted as A) |  |  |  |
|  | 74 | 0.32 |  | CCO[C@@H]1C[C@H]2C(=O)NC3(CCC3)C(=O)N(C)[C@@H](C3CCCC3)C(=O)N(C)[C@H](C(=O)N(C)C)CC(=O)N(C)[C@@H](Cc3cccs3)C(=O)N[C@@H]([C@@H](C)CC)C(=O)N(C)CC(=O)N(C)[C@H]3CCCCCN(C3=O)[C@@H](Cc3ccc(C(F)(F)F)cc3)C(=O)N(C)CC(=O)N[C@@H](CCc3cc(F)c(C(F)(F)F)c(F)c3)C(=O)N2C1 [PP1169] |  |  | B (a compound having 3 or more and less than 10 is denoted as B) | B (a compound having 3 or more and less than 10 is denoted as B) |  |  |  |
| 0.15 | 34.4 |  |  | CCO[C@@H]1C[C@H]2C(=O)NC(C)(C)C(=O)N(C)[C@@H](C3CCCC3)C(=O)N(C)[C@H](C(=O)N(C)C)CC(=O)N(C)[C@@H](CC)C(=O)N[C@@H]([C@@H](C)CC)C(=O)N(C)CC(=O)N(C)[C@H]3C/C=C\CCN(C3=O)[C@@H](Cc3ccc(C(F)(F)F)cc3)C(=O)N(C)CC(=O)N[C@@H](CCc3cc(F)c(C(F)(F)F)c(F)c3)C(=O)N2C1 [PP1280] | A (a compound having 10 or more and less than 20 is denoted as A) | A (a compound having 10 or more and less than 20 is denoted as A) |  |  |  |  |  |
|  | 82.7 |  | 1.5 | CCC(CC)[C@H]1C(=O)N(C)[C@H](C(=O)N(C)C)CC(=O)N(C)[C@@H](COC)C(=O)N[C@@H]([C@@H](C)CC)C(=O)N2CCC[C@H]2C(=O)N(C)[C@H]2C/C=C\CCN(C2=O)[C@@H](Cc2ccc(C(F)F)cc2)C(=O)N(C)CC(=O)N[C@@H](CCc2ccc(Cl)c(Cl)c2)C(=O)N2C[C@H](OC3CCCC3)C[C@H]2C(=O)NC2(CC(C)(C)C2)C(=O)N1C [PP2652] |  |  |  |  | A (a compound having 10 or more and less than 20 is denoted as A) | AA (a compound having 20 or more is denoted as AA) |  |
|  | 180 | 3.9 |  | CCC[C@H]1C(=O)N[C@@H](CC(C)C)C(=O)N(C2CC2)CC(=O)N(C)[C@H]2C/C=C\CCN(C2=O)[C@@H](Cc2ccc(C)cc2)C(=O)N(C)CC(=O)N[C@@H](CCc2ccc(C(F)(F)F)c(OC)c2)C(=O)N2C[C@H](OCC)C[C@H]2C(=O)NC2(CC(C)(C)C2)C(=O)N(C)[C@@H](C2CCCC2)C(=O)N(C)[C@H](C(=O)N(C)C)CC(=O)N1C [PP2510] |  |  | B (a compound having 3 or more and less than 10 is denoted as B) | A (a compound having 10 or more and less than 20 is denoted as A) |  |  |  |
| 0.27 | 92.8 |  |  | CCO[C@@H]1C[C@H]2C(=O)NC3(CCC3)C(=O)N(C)[C@@H](C3CCCC3)C(=O)N(C)[C@H](C(=O)N3CCC3)CC(=O)N(C)[C@@H](CC)C(=O)N[C@@H]([C@@H](C)CC)C(=O)N(C)CC(=O)N(C)[C@H]3C/C=C\CCN(C3=O)[C@@H](CC3CCCCC3)C(=O)N(C)CC(=O)N[C@@H](CCc3cc(F)c(C(F)(F)F)c(F)c3)C(=O)N2C1 [PP1445] | A (a compound having 10 or more and less than 20 is denoted as A) | A (a compound having 10 or more and less than 20 is denoted as A) |  |  |  |  |  |
|  |  | 0.22 |  | CC[C@H](C)[C@@H]1NC(=O)[C@@H]2CCCc3ccc(cc3)C[C@@H](C(=O)N(C)CC(=O)N[C@@H](CCc3ccc(C(F)(F)F)c(OC)c3)C(=O)N3CC4(CC4)C[C@H]3C(=O)NC3(CC(C)(C)C3)C(=O)N(C)[C@@H](C3CCCC3)C(=O)N(C)[C@H](C(=O)N(C)CC)CC(=O)N2C)N2CC/C=C\C[C@@H](C2=O)N(C)C(=O)CN(C)C1=O [PP3087] |  |  | B (a compound having 3 or more and less than 10 is denoted as B) | A (a compound having 10 or more and less than 20 is denoted as A) |  |  | ratio of the KD value with respect to GDP-bound HRAS wild-type protein to the KD value with respect to KRAS ([1]; SPR, KD(HRAS)/KD(KRAS)): B (a compound having 3 or more and less than 10 is denoted as B); IC50 ([3]; read-out: NCI-H441 cell proliferation inhibitory activity, 50% proliferation inhibitory concentration (IC50 value), NCI-H441, four days, CellTiter-Glo): 6.9 nM; ratio of the KD value with respect to GDP-bound NRAS wild-type protein to the KD value with respect to KRAS ([4]; SPR, KD(NRAS)/KD(KRAS)): A (a compound having 10 or more and less than 20 is denoted as A) |
|  | 54.4 | 0.094 |  | CCO[C@@H]1C[C@H]2C(=O)NC3(CCC3)C(=O)N(C)[C@@H](C3CCCC3)C(=O)N(C)[C@H](C(=O)N3CCOCC3)CC(=O)N(C)[C@@H](Cc3cccc(C#N)c3)C(=O)N[C@@H]([C@@H](C)CC)C(=O)N(C)CC(=O)N(C)[C@H]3CCCCCN(C3=O)[C@@H](Cc3ccc(F)cc3)C(=O)N(C)CC(=O)N[C@@H](CCc3cc(F)c(C(F)(F)F)c(F)c3)C(=O)N2C1 [PP1186] |  |  | B (a compound having 3 or more and less than 10 is denoted as B) | B (a compound having 3 or more and less than 10 is denoted as B) |  |  |  |
|  | 132 |  | 1.2 | CCC(CC)[C@H]1C(=O)N(C)[C@H](C(=O)N(C)C)CC(=O)N(C)[C@@H](COC)C(=O)N[C@@H]([C@@H](C)CC)C(=O)N(C2CC2)CC(=O)N(C)[C@H]2C/C=C\CCN(C2=O)[C@@H](Cc2ccc(C)cc2)C(=O)N(C)CC(=O)N[C@@H](CCc2cc(F)c(C(F)(F)F)c(F)c2)C(=O)N2C[C@H](OC3CCCC3)C[C@H]2C(=O)NC2(CC(C)(C)C2)C(=O)N1C [PP2619] |  |  |  |  | A (a compound having 10 or more and less than 20 is denoted as A) | AA (a compound having 20 or more is denoted as AA) |  |
|  | 55.8 |  | 0.85 | CCC[C@H]1C(=O)N[C@@H]([C@@H](C)CC)C(=O)N(C)CC(=O)N(C)[C@H]2C/C=C\CCN(C2=O)[C@@H](Cc2ccc(C(F)(F)F)cc2)C(=O)N(C)CC(=O)N[C@@H](CCc2ccc(C(F)(F)F)c(OC)c2)C(=O)N2C[C@H](OCC)C[C@H]2C(=O)NC2(CC(C)(C)C2)C(=O)N(C)[C@@H](CC2CCC2)C(=O)N(C)[C@H](C(=O)N(C)C)CC(=O)N1C [PP2764] |  |  |  |  | A (a compound having 10 or more and less than 20 is denoted as A) | A (a compound having 10 or more and less than 20 is denoted as A) |  |
| 0.56 | 23.1 |  |  | CCC[C@H]1C(=O)N[C@@H]([C@@H](C)CC)C(=O)N(C)CC(=O)N(C)[C@H]2C/C=C\CCN(C2=O)[C@@H](Cc2ccc(C(F)(F)F)cc2)C(=O)N(C)CC(=O)N[C@@H](CCc2cc(F)c(Cl)c(F)c2)C(=O)N2C[C@H](OCC)C[C@H]2C(=O)NC2(CCC2)C(=O)N(C)[C@@H](C(CC)CC)C(=O)N(C)[C@H](C(=O)N(C)C)CC(=O)N1C [PP1231] | A (a compound having 10 or more and less than 20 is denoted as A) | AA (a compound having 20 or more is denoted as AA) |  |  |  |  |  |

| SMILES | Kd [2, 5] [nM] | IC50 [3] [nM] | Kd ([2]; SPR, Single Cycle Kinetics) [nM] | Kd [2, 6] [nM] | HRAS/KRAS (ratio of KD value for HRAS to KD value for KRAS) ([1]; SPR, KD ratio class) | NRAS/KRAS (ratio of KD value for NRAS to KD value for KRAS) ([4]; SPR, KD ratio class) | HRAS/KRAS (ratio of KD value for HRAS to KD value for KRAS) ([1]; SPR) | NRAS/KRAS (ratio of KD value for NRAS to KD value for KRAS) ([4]; SPR) | HRAS/KRAS (ratio of KD value with respect to GDP-bound HRAS wild-type protein to KD value with respect to KRAS) [1] | NRAS/KRAS (ratio of KD value with respect to GDP-bound NRAS wild-type protein to KD value with respect to KRAS) [4] | further results |
| --- | --- | --- | --- | --- | --- | --- | --- | --- | --- | --- | --- |
| CCC(CC)[C@H]1C(=O)N(C)[C@H](C(=O)N2CCCCC2)CC(=O)N(C)[C@@H](COC)C(=O)N[C@@H]([C@@H](C)CC)C(=O)N(C)CC(=O)N(C)[C@H]2C/C=C\CCN(C2=O)[C@@H](Cc2ccc(C(F)(F)F)cc2)C(=O)N(C)CC(=O)N[C@@H](CCc2cc(F)c(C(F)(F)F)c(F)c2)C(=O)N2C[C@H](OC(C)C)C[C@H]2C(=O)NC2(CC(C)(C)C2)C(=O)N1C [PP2608] |  | 53 |  | 1.4 |  |  |  |  | A (a compound having 10 or more and less than 20 is denoted as A) | AA (a compound having 20 or more is denoted as AA) |  |
